Values belong to the molecule of their own block, whether it stands above or below them.
Legend:
[1] = molecular target: T1, D(2) dopamine receptor (Homo sapiens, UniProt P14416)
[2] = test system: Mus musculus; assay: Toxicity in mouse assessed as weight gain at 0.3 to 2.7 mg/kg, po for 28 days; format: organism-based; set-up: dose 0.3-2.7 mg/kg, route oral; settings: in vivo, 672 h
[3] = species: Mus musculus; assay: animal or person; settings: po
[4] = Oral bioavailability in rat at 12 mg/kg by HPLC-MS analysis; format: ADME, organism-based; settings: in vivo
[5] = AUC (0 to 12 hrs) in rat at 12 mg/kg, po by HPLC-MS analysis; format: ADME, organism-based; set-up: time < 12 hr, dose 12 mg/kg, route oral; settings: plasma
[6] = molecular target: Voltage-gated inwardly rectifying potassium channel KCNH2 (Homo sapiens, UniProt Q12809)
Chain of Voltage-gated inwardly rectifying potassium channel KCNH2 (Q12809 whole entry): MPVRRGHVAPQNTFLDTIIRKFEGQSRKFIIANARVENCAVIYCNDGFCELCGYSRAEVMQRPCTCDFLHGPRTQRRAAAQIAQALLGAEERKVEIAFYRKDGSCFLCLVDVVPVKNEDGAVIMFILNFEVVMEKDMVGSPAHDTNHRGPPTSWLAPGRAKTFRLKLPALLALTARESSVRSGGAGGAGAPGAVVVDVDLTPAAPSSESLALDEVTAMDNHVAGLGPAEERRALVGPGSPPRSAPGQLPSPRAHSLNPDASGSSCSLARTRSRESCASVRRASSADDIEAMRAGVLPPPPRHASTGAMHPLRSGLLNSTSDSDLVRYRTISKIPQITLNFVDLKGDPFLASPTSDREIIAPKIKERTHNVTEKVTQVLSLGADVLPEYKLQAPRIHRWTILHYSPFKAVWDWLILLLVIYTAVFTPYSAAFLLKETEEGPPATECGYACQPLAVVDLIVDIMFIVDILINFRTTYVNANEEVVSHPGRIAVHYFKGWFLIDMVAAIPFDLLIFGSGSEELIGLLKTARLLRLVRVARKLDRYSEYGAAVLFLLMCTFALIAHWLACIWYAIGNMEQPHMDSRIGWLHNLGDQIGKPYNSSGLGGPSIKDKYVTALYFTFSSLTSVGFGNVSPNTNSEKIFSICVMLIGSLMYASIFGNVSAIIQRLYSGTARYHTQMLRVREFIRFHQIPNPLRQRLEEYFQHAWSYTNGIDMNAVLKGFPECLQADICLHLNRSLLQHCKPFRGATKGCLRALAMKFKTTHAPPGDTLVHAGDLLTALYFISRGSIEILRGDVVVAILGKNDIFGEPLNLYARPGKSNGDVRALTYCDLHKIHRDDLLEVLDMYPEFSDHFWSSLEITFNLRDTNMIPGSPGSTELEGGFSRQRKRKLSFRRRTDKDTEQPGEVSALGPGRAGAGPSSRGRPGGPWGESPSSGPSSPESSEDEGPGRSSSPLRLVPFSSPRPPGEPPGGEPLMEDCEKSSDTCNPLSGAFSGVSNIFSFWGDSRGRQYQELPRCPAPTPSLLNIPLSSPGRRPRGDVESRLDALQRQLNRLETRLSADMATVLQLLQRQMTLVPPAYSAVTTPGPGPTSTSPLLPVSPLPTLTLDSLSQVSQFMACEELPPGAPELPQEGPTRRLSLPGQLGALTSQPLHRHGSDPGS
Description: Inhibition of human ERG expressed in HEK293 cells by electrophysiology assay

[7] = molecular target: T2, 5-hydroxytryptamine receptor 2A (Homo sapiens, UniProt P28223); assay: Antagonist activity at 5HT2A receptor (unknown origin) expressed in CHOK1 cells coexpressing Galpha15 assessed as inhibition of agonist-induced response at 10 uM incubated for 60 mins in incubator followed by 15 mins at room temperature by FLIPR assay relative to control; format: cell-based; settings: CHO-K1
T2 sequence (P28223 whole entry): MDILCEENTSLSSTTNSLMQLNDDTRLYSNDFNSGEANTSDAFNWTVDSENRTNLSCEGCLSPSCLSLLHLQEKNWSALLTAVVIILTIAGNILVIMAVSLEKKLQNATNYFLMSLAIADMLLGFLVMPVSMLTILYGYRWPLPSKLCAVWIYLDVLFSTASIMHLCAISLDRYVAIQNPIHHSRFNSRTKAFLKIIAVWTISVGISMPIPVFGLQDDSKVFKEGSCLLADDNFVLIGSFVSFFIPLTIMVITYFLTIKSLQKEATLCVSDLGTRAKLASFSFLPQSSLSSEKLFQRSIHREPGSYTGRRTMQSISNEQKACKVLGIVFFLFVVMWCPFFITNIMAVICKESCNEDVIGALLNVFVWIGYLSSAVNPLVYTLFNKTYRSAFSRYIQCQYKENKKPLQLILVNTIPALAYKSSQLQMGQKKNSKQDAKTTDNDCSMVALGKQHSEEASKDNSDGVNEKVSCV

[8] = test system: Mus musculus
[9] = test system: Mus musculus; assay: Toxicity in mouse assessed as effect on serum prolactin level at 0.3 to 2.7 mg/kg, po for 28 days measured 180 mins after last treatment by enzyme immunoassay; format: organism-based; set-up: dose 0.3-2.7 mg/kg, route oral; settings: in vivo, 3 h
[10] = molecular target: T3, 5-hydroxytryptamine receptor 1A (Homo sapiens) (UniProt P08908); assay: Agonist activity at 5HT1A receptor (unknown origin) expressed in CHOK1 cells coexpressing Galpha15 at 10 uM by FLIPR assay relative to control; format: cell-based; settings: CHO-K1
T3 sequence (whole entry): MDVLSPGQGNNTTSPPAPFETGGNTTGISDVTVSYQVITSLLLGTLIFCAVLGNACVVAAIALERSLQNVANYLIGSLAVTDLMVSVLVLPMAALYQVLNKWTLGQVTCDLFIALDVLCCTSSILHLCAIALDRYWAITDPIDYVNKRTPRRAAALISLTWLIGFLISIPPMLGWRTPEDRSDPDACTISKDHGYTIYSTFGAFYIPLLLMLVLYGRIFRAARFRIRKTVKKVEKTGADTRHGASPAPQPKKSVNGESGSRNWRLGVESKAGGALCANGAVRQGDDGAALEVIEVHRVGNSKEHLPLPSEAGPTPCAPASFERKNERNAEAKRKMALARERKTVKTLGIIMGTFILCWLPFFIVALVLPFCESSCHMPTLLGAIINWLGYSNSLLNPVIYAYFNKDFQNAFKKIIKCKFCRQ

[11] = test system: Mus musculus; assay: Toxicity in po dosed mouse assessed as induction of catalepsy; format: organism-based; settings: in vivo
[12] = molecular target: T2, 5-hydroxytryptamine receptor 2A
Description: Antagonist activity at 5HT2A receptor (unknown origin) expressed in CHOK1 cells coexpressing Galpha15 assessed as inhibition of agonist-induced response incubated for 60 mins in incubator followed by 15 mins at room temperature by FLIPR assay

[13] = molecular target: D(3) dopamine receptor (Rattus norvegicus, UniProt P19020); assay: biochemical
Chain of D(3) dopamine receptor (Rattus norvegicus, UniProt P19020) (P19020 whole entry): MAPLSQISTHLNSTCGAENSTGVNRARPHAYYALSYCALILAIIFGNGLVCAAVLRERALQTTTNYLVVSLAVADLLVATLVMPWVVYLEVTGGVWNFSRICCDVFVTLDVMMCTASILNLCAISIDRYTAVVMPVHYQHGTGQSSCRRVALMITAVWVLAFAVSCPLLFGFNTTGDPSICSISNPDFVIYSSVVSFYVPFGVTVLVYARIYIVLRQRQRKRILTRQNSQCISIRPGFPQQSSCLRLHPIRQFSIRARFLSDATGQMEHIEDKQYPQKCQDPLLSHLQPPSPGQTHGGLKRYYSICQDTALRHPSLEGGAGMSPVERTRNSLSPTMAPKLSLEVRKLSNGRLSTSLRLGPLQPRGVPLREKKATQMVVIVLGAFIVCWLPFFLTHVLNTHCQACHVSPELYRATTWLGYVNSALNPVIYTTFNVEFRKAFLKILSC

[14] = molecular target: T1, D(2) dopamine receptor; assay: Antagonist activity at dopamine D2 receptor (unknown origin) expressed in CHOK1 cells coexpressing Galpha15 assessed as inhibition of agonist-induced response at 10 uM incubated for 60 mins in incubator followed by 15 mins at room temperature by FLIPR assay relative to control; format: cell-based; settings: CHO-K1
[15] = Cmax in rat at 12 mg/kg, po by HPLC-MS analysis; format: ADME, organism-based; set-up: dose 12 mg/kg, route oral; settings: in vivo
[16] = molecular target: D(3) dopamine receptor (Homo sapiens, UniProt P35462)
Chain of D(3) dopamine receptor (Homo sapiens, UniProt P35462) (P35462 whole entry): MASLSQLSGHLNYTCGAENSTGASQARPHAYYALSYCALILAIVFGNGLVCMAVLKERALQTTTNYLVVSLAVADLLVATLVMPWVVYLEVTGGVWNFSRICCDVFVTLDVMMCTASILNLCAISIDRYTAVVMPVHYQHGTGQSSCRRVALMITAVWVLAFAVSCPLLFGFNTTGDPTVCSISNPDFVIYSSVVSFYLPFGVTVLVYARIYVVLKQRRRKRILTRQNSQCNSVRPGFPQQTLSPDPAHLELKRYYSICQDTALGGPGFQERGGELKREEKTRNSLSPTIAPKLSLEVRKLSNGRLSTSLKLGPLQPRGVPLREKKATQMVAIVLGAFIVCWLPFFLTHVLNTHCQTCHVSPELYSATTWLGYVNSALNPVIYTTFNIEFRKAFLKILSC

[17] = Half life in rat at 5 mg/kg, iv by HPLC-MS analysis; format: ADME, organism-based; set-up: dose 5 mg/kg, route intravenous; settings: in vivo
[18] = Acute toxicity in mouse assessed as mortality after 24 hrs; format: organism-based; settings: in vivo
[19] = molecular target: T4, 5-hydroxytryptamine receptor 2C (Rattus norvegicus, UniProt P08909); assay: biochemical
T4 sequence (P08909 whole entry): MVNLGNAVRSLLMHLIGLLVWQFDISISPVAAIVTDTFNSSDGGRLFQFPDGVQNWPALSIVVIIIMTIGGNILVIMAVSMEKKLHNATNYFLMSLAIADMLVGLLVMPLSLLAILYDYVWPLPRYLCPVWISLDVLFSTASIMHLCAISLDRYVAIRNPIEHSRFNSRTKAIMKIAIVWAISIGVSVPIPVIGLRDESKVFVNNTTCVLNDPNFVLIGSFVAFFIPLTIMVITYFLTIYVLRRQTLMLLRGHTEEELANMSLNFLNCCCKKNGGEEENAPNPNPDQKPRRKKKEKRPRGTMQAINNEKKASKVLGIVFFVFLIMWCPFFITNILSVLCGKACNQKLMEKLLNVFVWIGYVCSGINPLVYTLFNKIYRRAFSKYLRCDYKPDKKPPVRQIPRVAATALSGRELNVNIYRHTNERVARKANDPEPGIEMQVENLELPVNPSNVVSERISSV
Description: Displacement of [3H]mesulergine from 5HT2C receptor in rat cerebral cortex after 15 mins by liquid scintillation counting analysis

[20] = Tmax in rat at 12 mg/kg, po by HPLC-MS analysis; format: ADME, organism-based; set-up: dose 12 mg/kg, route oral; settings: in vivo
[21] = molecular target: Histamine H1 receptor (Cavia porcellus, UniProt P31389); assay: Displacement of [3H]mepyramine from histamine H1 receptor in guinea pig cerebellum after 60 mins by liquid scintillation counting analysis
Chain of Histamine H1 receptor (P31389 whole entry): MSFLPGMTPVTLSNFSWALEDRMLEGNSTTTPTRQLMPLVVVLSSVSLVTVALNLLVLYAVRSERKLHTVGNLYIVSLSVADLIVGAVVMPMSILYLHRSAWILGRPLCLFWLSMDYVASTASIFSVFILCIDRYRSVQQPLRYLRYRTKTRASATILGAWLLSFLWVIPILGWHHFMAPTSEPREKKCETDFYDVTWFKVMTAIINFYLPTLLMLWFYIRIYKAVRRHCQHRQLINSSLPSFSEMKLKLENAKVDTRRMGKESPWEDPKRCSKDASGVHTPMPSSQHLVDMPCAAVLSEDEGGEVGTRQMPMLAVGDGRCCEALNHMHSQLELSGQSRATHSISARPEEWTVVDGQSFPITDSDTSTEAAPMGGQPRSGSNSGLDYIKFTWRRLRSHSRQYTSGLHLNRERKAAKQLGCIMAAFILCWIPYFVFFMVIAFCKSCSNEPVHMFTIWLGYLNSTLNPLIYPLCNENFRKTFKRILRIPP

[22] = test system: Mus musculus; remark: listed apart in the source
Description: Antipsychotic activity in po dosed mouse assessed as reduction in apomorphine-induced climbing behavior administered for 30 mins prior to apomorphine-challenge measured at 10 to 30 mins post-dose

[23] = molecular target: T2, 5-hydroxytryptamine receptor 2A; assay: Agonist activity at 5HT2A receptor (unknown origin) expressed in CHOK1 cells coexpressing Galpha15 at 10 uM by FLIPR assay relative to control; format: cell-based; settings: CHO-K1
[24] = AUC (0 to infinity) in rat at 12 mg/kg, po by HPLC-MS analysis; format: ADME, organism-based; set-up: time infinity, dose 12 mg/kg, route oral; settings: plasma
[25] = in vivo; settings: mouse, po
Description: Therapeutic Index, ratio of ED50 for catalepsy in mouse to ED50 for antipsychotic activity in po dosed mouse assessed as reduction in apomorphine-induced climbing behavior

[26] = molecular target: T5, 5-hydroxytryptamine receptor 1A (Rattus norvegicus, UniProt P19327); assay: biochemical
T5 sequence (P19327 whole entry): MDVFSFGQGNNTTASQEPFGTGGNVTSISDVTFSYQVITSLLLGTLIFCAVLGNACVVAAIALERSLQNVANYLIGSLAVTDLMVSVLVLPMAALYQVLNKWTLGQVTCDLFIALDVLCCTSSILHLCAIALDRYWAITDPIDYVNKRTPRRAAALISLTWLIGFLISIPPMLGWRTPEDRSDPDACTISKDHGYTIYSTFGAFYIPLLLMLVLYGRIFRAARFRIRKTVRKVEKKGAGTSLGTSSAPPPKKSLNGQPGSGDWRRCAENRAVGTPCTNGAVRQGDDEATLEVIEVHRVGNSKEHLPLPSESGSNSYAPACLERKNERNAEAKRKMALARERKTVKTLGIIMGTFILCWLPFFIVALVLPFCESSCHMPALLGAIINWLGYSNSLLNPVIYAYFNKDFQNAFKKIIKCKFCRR
Description: Displacement of [3H]8-OH-DPAT from 5HT1A receptor in rat cerebral cortex after 30 mins by liquid scintillation counting analysis

T1 sequence (P14416 whole entry): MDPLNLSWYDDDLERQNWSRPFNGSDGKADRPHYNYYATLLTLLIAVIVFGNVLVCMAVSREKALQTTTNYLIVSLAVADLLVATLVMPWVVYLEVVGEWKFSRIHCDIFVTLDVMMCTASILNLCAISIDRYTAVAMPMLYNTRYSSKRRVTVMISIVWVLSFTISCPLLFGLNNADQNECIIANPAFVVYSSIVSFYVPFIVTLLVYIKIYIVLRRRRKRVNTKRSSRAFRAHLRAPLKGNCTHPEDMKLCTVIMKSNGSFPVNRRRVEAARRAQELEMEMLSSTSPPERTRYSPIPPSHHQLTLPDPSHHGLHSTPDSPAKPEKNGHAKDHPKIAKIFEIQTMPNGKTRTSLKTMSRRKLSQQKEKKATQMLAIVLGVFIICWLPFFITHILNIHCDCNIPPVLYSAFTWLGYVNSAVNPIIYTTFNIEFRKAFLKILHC

Structure (SMILES): Cc1cc(=O)oc2c(Cl)c(OCCCCN3CCC(c4noc5cc(F)ccc45)CC3)ccc12
- IC50 [1]: 26.3 nM
- Activity [2]: Non-toxic
- ED50 [3]: 0.32 mg/kg
- bioavailability [4]: 32%
- AUC(0-t) at 12 h [5]: 644 ng·h/mL
- IC50 [6]: 1590 nM
- inhibition [7]: 99.1%
- Activity [8]: Dose-dependent effect
- Activity [9]: Non-toxic
- Activity [10]: 9.9%
- ED50 [11]: 70.85 mg/kg
- IC50 [12]: 39.2 nM
- Ki [13]: 4.3 nM
- inhibition [14]: 101%
- Cmax [15]: 72.1 ng/mL
- IC50 [16]: 24.8 nM
- half-life [17]: 300 min
- LD50 at 24 h [18]: > 2000 mg/kg
- Ki [19]: 1700 nM
- Tmax [20]: 3 h
- Ki [21]: 1130 nM
- Activity [22]: Dose-dependent effect
- Activity [23]: 10%
- AUC(0-inf) [24]: 703 ng·h/mL
- selectivity ratio [25]: 215
- Ki [26]: 3.3 nM

Structure (SMILES): COc1ccccc1N1CCN(CCCCOc2ccc3c(C)cc(=O)oc3c2)CC1
- IC50 [6]: 31 nM
- Ki [13]: 4.8 nM
- Ki [19]: 1000 nM
- Ki [21]: > 10000 nM
- Ki [26]: 0.012 nM

Structure (SMILES): Cc1c(C)c2ccc(OCCCCN3CCC(c4noc5cc(F)ccc45)CC3)cc2oc1=O
- IC50 [6]: 195 nM
- Ki [13]: 30.6 nM
- Ki [19]: 389 nM
- Ki [21]: 550 nM
- Ki [26]: 16.7 nM

Structure (SMILES): O=c1cc(-c2ccccc2)c2ccc(OCCCCN3CCC(c4noc5cc(F)ccc45)CC3)cc2o1
- Ki [13]: 72.7 nM
- Ki [19]: 256 nM
- Ki [21]: 38.1 nM
- Ki [26]: 12.7 nM

Continued by falling Ki [13], values first:

- Ki [13]: 71.3 nM
- Ki [19]: 11.9 nM
- Ki [21]: 19.6 nM
- Ki [26]: 3.5 nM
Structure (SMILES): Cc1cc(=O)oc2cc(OCCCCN3CCC(c4noc5cc(F)ccc45)CC3)ccc12
- IC50 [6]: 159 nM

- Ki [13]: 13.6 nM
- Ki [19]: 68.9 nM
- Ki [21]: 21.3 nM
- Ki [26]: 12.9 nM
Structure (SMILES): Cc1cc(=O)oc2c(C)c(OCCCCN3CCC(c4noc5cc(F)ccc45)CC3)ccc12
- IC50 [6]: 226 nM

— ChEMBL document CHEMBL2385071, “Synthesis and biological investigation of coumarin piperazine (piperidine) derivatives as potential multireceptor atypical antipsychotics” (J Med Chem, 2013)
